Source: PubChem BioAssay AID2060900 (Molecular Pharmacology Branch, DTP, NCI, 2025)

Tested on: 521955-158-R2-J5-PDC complex spheroids, viability
Assay: Anticancer human tumor 521955-158-R2-J5-PDC patient-derived pancreatic carcinoma cell line growth inhibition [RAS]
Details: for IC50: curve of first compound; for viability, T/C: stronger effect = lower value; active means viability on the fitted dose curve at most 10% of control; inactive means the rest
In short: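 Multi-cell-type spheroids: tumor cells plus HUVEC endothelial cells and mesenchymal stem cells. RAS-pathway inhibitors were combined with targeted agents, each dosed in half-log steps down from clinical Cmax, or from 10 microM when Cmax was unknown.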
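Further: compound exposure lasted seven days before the viability read.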
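Wherever viability, T/C is given: spheroids also contain HUVEC endothelial cells and mesenchymal stem cells as stroma.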

CC1(C)CCC(Nc2ncc(C(F)(F)F)c(-c3c[nH]c4c(P(C)(C)=O)c(C#N)ccc34)n2)CN1 (stereo unspecified) + CCn1c(-c2cc(N3CCN(C)CC3)cnc2C(C)OC)c2c3cc(ccc31)-c1csc(n1)CC(NC(=O)C1CC1C)C(=O)N1CCCC(N1)C(=O)OCC(C)(C)C2
< 0.949 nM: IC50 (second compound 0.000949 µM) | IC50 (second compound 0.003 µM) | IC50 (second compound 0.00949 µM) | IC50 (second compound 0.03 µM) | IC50 (second compound 0.0949 µM) | IC50 (second compound 0.3 µM)
active: viability, T/C (second compound 0.03 µM, first compound 0.03 µM) 7.37% | viability, T/C (second compound 0.03 µM, first compound 0.0949 µM) 8.43% | viability, T/C (second compound 0.03 µM, first compound 0.3 µM) 7.63% | viability, T/C (second compound 0.0949 µM, first compound 0.000949 µM) 8.04% | viability, T/C (second compound 0.0949 µM, first compound 0.003 µM) 7.4% | viability, T/C (second compound 0.0949 µM, first compound 0.00949 µM) 8.22% | viability, T/C (second compound 0.0949 µM, first compound 0.03 µM) 5.8% | viability, T/C (second compound 0.0949 µM, first compound 0.0949 µM) 4.67% | viability, T/C (second compound 0.0949 µM, first compound 0.3 µM) 4.29% | viability, T/C (second compound 0.3 µM, first compound 0.000949 µM) 8.35% | viability, T/C (second compound 0.3 µM, first compound 0.003 µM) 7.65% | viability, T/C (second compound 0.3 µM, first compound 0.00949 µM) 4.3% | viability, T/C (second compound 0.3 µM, first compound 0.03 µM) 4.81% | viability, T/C (second compound 0.3 µM, first compound 0.0949 µM) 3.91% | viability, T/C (second compound 0.3 µM, first compound 0.3 µM) 5.79%
inactive: viability, T/C (second compound 0.000949 µM, first compound 0.000949 µM) 33.7% | viability, T/C (second compound 0.000949 µM, first compound 0.003 µM) 32% | viability, T/C (second compound 0.000949 µM, first compound 0.00949 µM) 33.4% | viability, T/C (second compound 0.000949 µM, first compound 0.03 µM) 30.9% | viability, T/C (second compound 0.000949 µM, first compound 0.0949 µM) 39.5% | viability, T/C (second compound 0.000949 µM, first compound 0.3 µM) 40.5% | viability, T/C (second compound 0.003 µM, first compound 0.000949 µM) 34.6% | viability, T/C (second compound 0.003 µM, first compound 0.003 µM) 26.5% | viability, T/C (second compound 0.003 µM, first compound 0.00949 µM) 18% | viability, T/C (second compound 0.003 µM, first compound 0.03 µM) 23.1% | viability, T/C (second compound 0.003 µM, first compound 0.0949 µM) 23.4% | viability, T/C (second compound 0.003 µM, first compound 0.3 µM) 31.7% | viability, T/C (second compound 0.00949 µM, first compound 0.000949 µM) 24.2% | viability, T/C (second compound 0.00949 µM, first compound 0.003 µM) 23.6% | viability, T/C (second compound 0.00949 µM, first compound 0.00949 µM) 20.4% | viability, T/C (second compound 0.00949 µM, first compound 0.03 µM) 16.6% | viability, T/C (second compound 0.00949 µM, first compound 0.0949 µM) 15.1% | viability, T/C (second compound 0.00949 µM, first compound 0.3 µM) 19.4% | viability, T/C (second compound 0.03 µM, first compound 0.000949 µM) 12.3% | viability, T/C (second compound 0.03 µM, first compound 0.003 µM) 17.6% | viability, T/C (second compound 0.03 µM, first compound 0.00949 µM) 9.79%

CC(Nc1ccc2c(c1)OCCn1cc(N3C(=O)OCC3C(F)F)nc1-2)C(N)=O (stereo unspecified) + CCn1c(-c2cc(N3CCN(C)CC3)cnc2C(C)OC)c2c3cc(ccc31)-c1csc(n1)CC(NC(=O)C1CC1C)C(=O)N1CCCC(N1)C(=O)OCC(C)(C)C2
< 31.6 nM: IC50 (second compound 0.000949 µM) | IC50 (second compound 0.003 µM) | IC50 (second compound 0.00949 µM) | IC50 (second compound 0.03 µM) | IC50 (second compound 0.0949 µM) | IC50 (second compound 0.3 µM)
active: viability, T/C (second compound 0.003 µM, first compound 3.16 µM) 8.65% | viability, T/C (second compound 0.003 µM, first compound 10 µM) 7.85% | viability, T/C (second compound 0.00949 µM, first compound 1 µM) 8.38% | viability, T/C (second compound 0.00949 µM, first compound 3.16 µM) 7.16% | viability, T/C (second compound 0.00949 µM, first compound 10 µM) 4.66% | viability, T/C (second compound 0.03 µM, first compound 0.316 µM) 11.4% | viability, T/C (second compound 0.03 µM, first compound 1 µM) 3.73% | viability, T/C (second compound 0.03 µM, first compound 3.16 µM) 6.17% | viability, T/C (second compound 0.03 µM, first compound 10 µM) 1.25% | viability, T/C (second compound 0.0949 µM, first compound 0.0316 µM) 7.65% | viability, T/C (second compound 0.0949 µM, first compound 0.1 µM) 6.24% | viability, T/C (second compound 0.0949 µM, first compound 0.316 µM) 4.21% | viability, T/C (second compound 0.0949 µM, first compound 1 µM) 1.25% | viability, T/C (second compound 0.0949 µM, first compound 3.16 µM) 5.01% | viability, T/C (second compound 0.0949 µM, first compound 10 µM) 1.25% | viability, T/C (second compound 0.3 µM, first compound 0.1 µM) 6.36% | viability, T/C (second compound 0.3 µM, first compound 0.316 µM) 5.9% | viability, T/C (second compound 0.3 µM, first compound 1 µM) 3.16% | viability, T/C (second compound 0.3 µM, first compound 3.16 µM) 3.15% | viability, T/C (second compound 0.3 µM, first compound 10 µM) 0.45%
inactive: viability, T/C (second compound 0.000949 µM, first compound 0.0316 µM) 31.7% | viability, T/C (second compound 0.000949 µM, first compound 0.1 µM) 24.1% | viability, T/C (second compound 0.000949 µM, first compound 0.316 µM) 21.9% | viability, T/C (second compound 0.000949 µM, first compound 1 µM) 13.8% | viability, T/C (second compound 0.000949 µM, first compound 3.16 µM) 14.3% | viability, T/C (second compound 0.000949 µM, first compound 10 µM) 11.4% | viability, T/C (second compound 0.003 µM, first compound 0.0316 µM) 32.7% | viability, T/C (second compound 0.003 µM, first compound 0.1 µM) 22.1% | viability, T/C (second compound 0.003 µM, first compound 0.316 µM) 20.1% | viability, T/C (second compound 0.003 µM, first compound 1 µM) 13.7% | viability, T/C (second compound 0.00949 µM, first compound 0.0316 µM) 31.2% | viability, T/C (second compound 0.00949 µM, first compound 0.1 µM) 21.7% | viability, T/C (second compound 0.00949 µM, first compound 0.316 µM) 11.8% | viability, T/C (second compound 0.03 µM, first compound 0.0316 µM) 12.8% | viability, T/C (second compound 0.03 µM, first compound 0.1 µM) 10.3% | viability, T/C (second compound 0.3 µM, first compound 0.0316 µM) 10.2%

Nc1ccn(C2OC(CO)C(O)C2(F)F)c(=O)n1 (stereo unspecified) + C#Cc1c(F)ccc2cc(O)cc(-c3ncc4c(N5CC6CCC(C5)N6)nc(OCC56CCCN5CC(F)C6)nc4c3F)c12
active: viability, T/C (second compound 10 µM, first compound 1 µM) 9.08%
3.68 nM: IC50 (second compound 1 µM)
inactive: viability, T/C (second compound 0.0316 µM, first compound 0.00316 µM) 48.8% | viability, T/C (second compound 0.0316 µM, first compound 0.01 µM) 39.5% | viability, T/C (second compound 0.0316 µM, first compound 0.0316 µM) 32.6% | viability, T/C (second compound 0.0316 µM, first compound 0.1 µM) 24.9% | viability, T/C (second compound 0.0316 µM, first compound 0.316 µM) 24.1% | viability, T/C (second compound 0.0316 µM, first compound 1 µM) 18.5% | viability, T/C (second compound 0.1 µM, first compound 0.00316 µM) 44.5% | viability, T/C (second compound 0.1 µM, first compound 0.01 µM) 44.9% | viability, T/C (second compound 0.1 µM, first compound 0.0316 µM) 28.8% | viability, T/C (second compound 0.1 µM, first compound 0.1 µM) 20.9% | viability, T/C (second compound 0.1 µM, first compound 0.316 µM) 21% | viability, T/C (second compound 0.1 µM, first compound 1 µM) 15.4% | viability, T/C (second compound 0.316 µM, first compound 0.00316 µM) 43.3% | viability, T/C (second compound 0.316 µM, first compound 0.01 µM) 42.9% | viability, T/C (second compound 0.316 µM, first compound 0.0316 µM) 28.8% | viability, T/C (second compound 0.316 µM, first compound 0.1 µM) 23.4% | viability, T/C (second compound 0.316 µM, first compound 0.316 µM) 17.4% | viability, T/C (second compound 0.316 µM, first compound 1 µM) 17.8% | viability, T/C (second compound 1 µM, first compound 0.00316 µM) 52.4% | viability, T/C (second compound 1 µM, first compound 0.01 µM) 34.6% | viability, T/C (second compound 1 µM, first compound 0.0316 µM) 27.7% | viability, T/C (second compound 1 µM, first compound 0.1 µM) 16.4% | viability, T/C (second compound 1 µM, first compound 0.316 µM) 15.3% | viability, T/C (second compound 1 µM, first compound 1 µM) 14% | viability, T/C (second compound 3.16 µM, first compound 0.00316 µM) 48.5% | viability, T/C (second compound 3.16 µM, first compound 0.01 µM) 41.6% | viability, T/C (second compound 3.16 µM, first compound 0.0316 µM) 27.5% | viability, T/C (second compound 3.16 µM, first compound 0.1 µM) 20.8% | viability, T/C (second compound 3.16 µM, first compound 0.316 µM) 15% | viability, T/C (second compound 3.16 µM, first compound 1 µM) 13% | viability, T/C (second compound 10 µM, first compound 0.00316 µM) 35.9% | viability, T/C (second compound 10 µM, first compound 0.01 µM) 32.7% | viability, T/C (second compound 10 µM, first compound 0.0316 µM) 20.8% | viability, T/C (second compound 10 µM, first compound 0.1 µM) 20.4% | viability, T/C (second compound 10 µM, first compound 0.316 µM) 13.4%
< 3.16 nM: IC50 (second compound 0.0316 µM) | IC50 (second compound 0.1 µM) | IC50 (second compound 0.316 µM) | IC50 (second compound 3.16 µM) | IC50 (second compound 10 µM)
